Source: US20240116946A1 (Gilead Sciences, Inc., priority 2022, published 2024)
pEC50, pIC50: −log10 of the molar value. Read-outs that look alike come from different tables or passages of the source.

Legend:
[1] = molecular target: recombinant SARS-CoV-2 Main protease (Mpro) (Severe acute respiratory syndrome coronavirus 2 (2019-nCoV) (SARS-CoV-2), UniProt P0DTD1); experiment: Cov Mpro Biochemical IC50 Assay; settings: read-out: MPro IC50
[2] = tested on: SARS-CoV-2-NLuc; experiment: microbe, parasite or virus in culture; assay type: cell-based, SARS Coronavirus 2
[3] = recombinant SARS-CoV-2 Mpro, fluorogenic peptide substrate
[4] = Severe acute respiratory syndrome coronavirus, 48 h, read-out: MPro EC50
[5] = recombinant SARS-CoV-2 Mpro 7.5 nM, fluorogenic peptide substrate 40 μM
[6] = Severe acute respiratory syndrome coronavirus, 48 h; read-out: MPro EC50

Row | SMILES | pIC50 [1, 3] | pEC50 [2, 4] | pIC50 [1, 5] | pEC50 [2, 6] | pEC50 ([2]; read-out: MPro EC50)
1 | O=c1[nH]c2cc(-c3c(Cl)cccc3-c3ccc4nccn4c3)ccc2c(=O)n1-c1cncc2ccccc12 [Example 147] | 7.96 | 7.77 | – | – | –
2 | COc1cc(-c2cc3[nH]c(=O)n(-c4cncc5c4CCCC5)c(=O)c3s2)c(Cl)cc1F [Example 729] | – | – | 8.21 | 8.11 | –
3 | COc1cc(-c2cc3[nH]c(=O)n(-c4cncc5cccc(F)c45)c(=O)c3s2)c(Cl)cc1F (single isomer, unassigned) [Example 900, 6-(2-chloro-4-fluoro-5-methoxyphenyl)-3-(5-fluoroisoquinolin-4-yl)thieno[3,2-d]pyrimidine-2,4(1H,3H)-dione] | – | – | 6.48 | – | 6.77
4 | COc1cc(-c2cc3[nH]c(=O)n(-c4cncc5ccncc45)c(=O)c3s2)c(Cl)cc1F [Example 739] | – | – | 8.02 | 7.76 | –
5 | N#Cc1ccc(Cl)c(-c2cc3[nH]c(=O)n(-c4cncc5ccccc45)c(=O)c3s2)c1 [Example 545] | – | 6.95 | 7.53 | – | –
6 | Cc1cc(Cl)cc(Cl)c1-c1cc2[nH]c(=O)n(-c3cncc4ccccc34)c(=O)c2s1 [Example 721] | – | 6.32 | 6.15 | – | –
7 | O=c1c2sc(-c3ccccc3Cl)cc2n(Cc2cccnc2)c(=O)n1-c1cncc2ccccc12 [Example 156] | 6.78 | 6.77 | – | – | –
8 | COc1ccc(Cl)c(-c2cc3[nH]c(=O)n(-c4cncc5c4CCCO5)c(=O)c3s2)c1 [Example 599] | – | 7.31 | 8.30 | – | –
9 | N#CCCn1c(=O)n(-c2cncc3nnn(C4CC4)c23)c(=O)c2sc(-c3ccccc3Cl)cc21 [Example 938] | – | 7.11 | 7.75 | – | –
10 | N#CCCn1c(=O)n(-c2cccnc2)c(=O)c2sc(-c3cc(F)c(F)cc3Cl)cc21 [Example 803] | – | – | 7.59 | 7.04 | –
11 | CCn1cc2cncc(-n3c(=O)c4sc(-c5cc(OC)c(F)cc5Cl)cc4n(CCC#N)c3=O)c2n1 [Example 913] | – | 8.34 | 8.37 | – | –
12 | Cc1cc(Cl)c(-c2cc3[nH]c(=O)n(-c4cncc5ccccc45)c(=O)c3s2)cc1C#N [Example 548] | – | 6.94 | 8.12 | – | –
13 | COc1cc(-c2cc3c(s2)c(=O)n(-c2cncc4nc(C)n(C)c24)c(=O)n3CCC#N)c(Cl)cc1F (single isomer, unassigned) [Example 969, 3-(6-(2-chloro-4-fluoro-5-methoxyphenyl)-3-(1,2-dimethyl-1H-imidazo[4,5-c]pyridin-7-yl)-2,4-dioxo-3,4-dihydrothieno[3,2-d]pyrimidin-1(2H)-yl)propanenitrile] | – | – | < 6.00 | – | < 6.00
14 | O=c1[nH]c2cc(-c3ccccc3Cl)sc2c(=O)n1-c1cncc2cnccc12 [Example 584] | – | 7.50 | 7.89 | – | –
15 | COc1cc(-c2cc3c(s2)c(=O)n(-c2cncc4cnn(C)c24)c(=O)n3CCC#N)c(Cl)cc1F (single isomer, unassigned) [Example 644, 3-[6-(2-chloro-4-fluoro-5-methoxy-phenyl)-3-(1-methylpyrazolo[4,3-c]pyridin-7-yl)-2,4-dioxo-thieno[3,2-d]pyrimidin-1-yl]propanenitrile] | – | – | 8.51 | – | 8.81
16 | COc1cc(-c2cc3c(s2)c(=O)n(-c2cncc4cnsc24)c(=O)n3CCC#N)c(Cl)cc1F [Example 922] | – | < 6.00 | 8.55 | – | –
17 | COc1cc(-c2cc3c(s2)c(=O)n(-c2cncc4c2c(C)nn4C)c(=O)n3CCC#N)c(Cl)cc1F (single isomer, unassigned) [Example 1044, 3-(6-(2-chloro-4-fluoro-5-methoxyphenyl)-3-(1,3-dimethyl-1H-pyrazolo[3,4-c]pyridin-4-yl)-2,4-dioxo-3,4-dihydrothieno[3,2-d]pyrimidin-1(2H)-yl)propanenitrile] | – | – | 8.45 | – | 8.49
18 | COc1cc(-c2cc3[nH]c(=O)n(-c4cncc5ccn(C)c45)c(=O)c3cc2OC)c(C#N)cc1F [Example 683] | – | 7.36 | 8.05 | – | –
19 | COc1cc(-c2cc3c(s2)c(=O)n(-c2cncc4ccccc24)c(=O)n3CCCC#N)c(Cl)cc1F [Example 660] | – | 7.78 | 7.75 | – | –

Row | SMILES | pIC50 [1, 3] | pEC50 [2, 4] | pIC50 [1, 5] | pEC50 [2, 6] | pEC50 ([2]; read-out: MPro EC50)
20 | N#CCCn1c(=O)n(-c2cncc(C3CC4(COC4)C3)c2)c(=O)c2sc(-c3ccccc3Cl)cc21 [Example 1064, 3-(3-(5-(2-oxaspiro[3.3]heptan-6-yl)pyridin-3-yl)-6-(2-chlorophenyl)-2,4-dioxo-3,4-dihydrothieno[3,2-d]pyrimidin-1(2H)-yl)propanenitrile] | – | – | 7.62 | 6.15 | –
21 | COc1cccc(Cl)c1-c1cc2[nH]c(=O)n(-c3cncc4ccccc34)c(=O)c2s1 [Example 19] | 7.53 | 7.22 | – | – | –
22 | COc1ccc(Cl)c(-c2cc3[nH]c(=O)n(-c4cncc5ccccc45)c(=O)c3s2)c1 [Example 174, 6-(2-chloro-5-methoxyphenyl)-3-(isoquinolin-4-yl)thieno[3,2-d]pyrimidine-2,4(1H,3H)-dione] | 8.16 | 7.51 | – | – | –
23 | COc1cc(-c2cc3c(s2)c(=O)n(-c2cncc(OC)c2C)c(=O)n3CCC#N)c(Cl)cc1F [Example 871] | – | 6.66 | 7.12 | – | –
24 | COc1cc(-c2cc3c(s2)c(=O)n(-c2cncc4c2c(C)nn4CC(F)(F)F)c(=O)n3CCC#N)c(Cl)cc1F [Example 919] | – | 6.44 | 6.03 | – | –
25 | N#Cc1ccc(F)c(-c2cc3[nH]c(=O)n(-c4cncc5ccccc45)c(=O)c3s2)c1 [Example 547] | – | < 6.00 | 6.77 | – | –
26 | Cn1cc(-c2cccc(Cl)c2-c2ccc3c(=O)n(-c4cncc5ccccc45)c(=O)[nH]c3c2)nn1 [Example 310] | 7.26 | 6.85 | – | – | –
27 | COc1cnc(Cl)c(-c2cc3c(s2)c(=O)n(-c2cncc4ccccc24)c(=O)n3CCC#N)c1 (single isomer, unassigned) [Example 1088, 3-(6-(2-chloro-5-methoxypyridin-3-yl)-3-(isoquinolin-4-yl)-2,4-dioxo-3,4-dihydrothieno[3,2-d]pyrimidin-1(2H)-yl)propanenitrile] | – | – | 8.78 | – | 8.49
28 | N#CCCn1c(=O)n(-c2cncc3ccccc23)c(=O)c2sc(-c3ccccc3C#N)cc21 [Example 819, 2-(1-(2-cyanoethyl)-3-(isoquinolin-4-yl)-2,4-dioxo-1,2,3,4-tetrahydrothieno[3,2-d]pyrimidin-6-yl)benzonitrile] | – | 7.95 | 7.99 | – | –
29 | O=c1[nH]c2c(F)c(-c3ccccc3Cl)ccc2c(=O)n1-c1cncc2ccccc12 [Example 82] | 5.86 | 5.54 | – | – | –
30 | O=c1[nH]c2cc(-c3c(Cl)cccc3-c3ccc4oncc4c3)ccc2c(=O)n1-c1cncc2ccccc12 [Example 361] | 7.41 | 6.75 | – | – | –
31 | COCCn1ncc2cncc(-n3c(=O)c4sc(-c5cc(OC)c(F)cc5Cl)cc4n(CCC#N)c3=O)c21 [Example 912] | – | 8.36 | 8.31 | – | –
32 | Cc1nn(C)cc1-c1cccc(Cl)c1-c1cc2[nH]c(=O)n(-c3cncc4ccccc34)c(=O)c2s1 [Example 518, 6-[2-chloro-6-(1,3-dimethylpyrazol-4-yl)phenyl]-3-(4-isoquinolyl)-1H-thieno[3,2-d]pyrimidine-2,4-dione] | – | 8.26 | 8.04 | – | –
33 | COc1cc(-c2cc3c(s2)c(=O)n(-c2cncc4nnn(C)c24)c(=O)n3CCC#N)c(Cl)cc1F (single isomer, unassigned) [Example 1059, 3-(6-(2-chloro-4-fluoro-5-methoxyphenyl)-3-(1-methyl-1H-[1,2,3]triazolo[4,5-c]pyridin-7-yl)-2,4-dioxo-3,4-dihydrothieno[3,2-d]pyrimidin-1(2H)-yl)propanenitrile] | – | – | 7.35 | – | 7.00
34 | Cn1nnc2cncc(-n3c(=O)c4sc(-c5ccc(F)cc5Cl)cc4n(CCC#N)c3=O)c21 (single isomer, unassigned) [Example 1028, 3-[6-(2-chloro-4-fluoro-phenyl)-3-(1-methyltriazolo[4,5-c]pyridin-7-yl)-2,4-dioxo-thieno[3,2-d]pyrimidin-1-yl]propanenitrile] | – | – | 7.75 | – | 7.29
35 | Cn1ncc(-c2cccc(Cl)c2-c2ccc3c(=O)n(-c4cncc5ccccc45)c(=O)[nH]c3c2)c1C(F)F [Example 311] | 7.34 | 7.60 | – | – | –
36 | COc1ccc(Cl)c(-c2cc3[nH]c(=O)n(-c4cncc5ccc(O)cc45)c(=O)c3s2)c1 [Example 581] | – | 6.82 | > 8.60 | – | –
37 | O=c1[nH]c2cc(-c3cc(Cl)c(F)cc3Cl)sc2c(=O)n1-c1cncc2ccccc12 [Example 726] | – | 7.41 | 7.64 | – | –
38 | O=c1[nH]c2cc(-c3ccccc3Cl)sc2c(=O)n1-c1cncc2ccc(N3CC4(CCCO4)C3)cc12 [Example 402] | – | 7.92 | 8.22 | – | –
